What was measured:
[1] = tested on: HCN2 over-expressing cell culture; assay: Spontaneous rate (action potential recording) of AdHCN2 infected culture during drug superfusion; assay type: cell-based, rat; conditions: for spontaneous rate during drug exposure: AdHCN2 infected culture, same culture during superfusion with drug, control records: 48 (isoproterenol), 54 (carbachol), 96 (ZD-7288) beats/min; for effect on heart rate of the culture (in words): HCN2 over-expressing cell culture
From the text: Adult rats were anesthetized with ketamine-xylazine before cardiectomy, and neonatal rats decapitated, in accordance with the Institutional Animal Care and Use Committee protocols of Columbia University. For preparing cell cultures of newborn ventricles, a standard trypsin dissociation method was employed (21). The cells were preplated to reduce fibroblast proliferation, cultured initially in serum-containing medium (except when being transfected with plasmids as described below) and then switched to a serum free medium (SFM) after 24 hours. Action potential studies were conducted on 4 day old monolayer cultures plated directly onto fibronectin coated 9×22 mm glass coverslips. For voltage clamp experiments, 4–6 day old monolayer cultures were resuspended by brief (2–3 min) exposure to 0.25% trypsin, then the cells replated onto fibronectin-coated coverslips and studied within 2–8 hours.
For adult rat ventricular myocytes, AdHCN2 infection was carried out 2–3 hours after the isolated cells were plated onto coverslips. For neonatal cells, the infection was done on the monolayer culture 1–3 days after plating. In either case, the culture medium was removed from the dishes (35-mm) and the inoculum of 0.2–0.3 ml/dish was added containing AdHCN2. The value of m.o.i. (multiplicity of infection—the ratio of viral units to cells) was 15–100. The inoculum was dispersed over the cells every 20 min by gently “tilting” the dishes so that the cells were evenly exposed to the viral particles. The dishes were kept at 37° C. in a CO2 incubator during the adsorption period of two hours, then the inoculum was discarded and the dishes were washed and refilled with the appropriate culture medium. The dishes remained in the incubator for 24–48 hours before electrophysiological experiments were conducted. In some experiments, an adenoviral construct for GFP (AdGFP) was employed.
The whole-cell voltage clamp technique was employed to record native If or expressed IHCN2 or IHCN4. Action potentials were recorded in current clamp mode, again using a whole cell patch electrode/Experiments were carried out on cells supervised at 35° C. Extracellular solution contained (mmol/L): NaCl, 140; NaOH, 2.3; MgCl2, 1; KCl, 5.4; CaCl2, 1.0; HEPES, 5; glucose, 10; pH 7.4. To record from myocytes expressing native currents (If) myocytes expressing HCN2 (IHCN2) or HCN4 (IHCN4), [K^+]0 was increased to 10 mmol/L, and MnCl2 (2 mmol/L) and BaCl2 (4 mmol/L) added to the superfusate to eliminate calcium and inward rectifier (IK1) currents. In some experiments CsCl (4 mmol/L) was used extracellularly to identify the pacemaker current as the Cs-sensitive current. The patch pipette solution included (mmol/L): aspartic acid, 130; KOH, 146; NaCl, 10; CaCl2, 2; EGTA-KOH, 5; Mg-ATP, 2; HEPES-KOH, 10, pH 7.2. Where indicated, 10 μmol/L cAMP was included in the pipette solution. A fast solution changing apparatus expedited the experimental protocols. The pipette resistance was typically […]. An Axopatch-200B amplifier and pClampS software (Axon Instruments) were used for acquisition and data analysis. The pacemaker current (If, IHCN2 or IHCN4) was defined as the time-dependent component taken at the end of a hyperpolarizing step to voltages in the range of −35 to −145 mV, while the holding potential was −35 mV unless otherwise indicated. For If and IHCN2 measurements, the hyperpolarizing test pulses were 3 or 6 sec long throughout the voltage range. To accurately record steady-state currents for the more slowly activating IHCN4, the test voltages varied in length from 6 sec at −125 mV to as long as 60 sec at −55 mV. When recording tail currents, the test pulses were followed by an 8-sec voltage step to −125 mV. In all pacemaker current protocols, each episode ended with a pulse to −5 mV for 0.5 sec to insure full deactivation.
The normal cardiac pacemaker beats independently but is regulated by neurotransmitters released from sympathetic and parasympathetic neurons. […]

expressed HCN2 current = biological target: T1, expressed HCN2 current (Mus musculus, UniProt O88703); assay: Whole-cell voltage clamp: shift of the activation relation of expressed HCN2 current in ventricular myocytes; assay type: cell-based; conditions: for shift of the voltage dependence of HCN2: saturating cAMP (10 μmol/L) in the pipette
T1 construct: expressed in transfected cells; host or cells: neonatal and adult rat ventricular myocytes in primary culture, infected with adenovirus AdHCN2 (or lipofectin-transfected with pCI-mHCN2)
T1 sequence (O88703 1-863): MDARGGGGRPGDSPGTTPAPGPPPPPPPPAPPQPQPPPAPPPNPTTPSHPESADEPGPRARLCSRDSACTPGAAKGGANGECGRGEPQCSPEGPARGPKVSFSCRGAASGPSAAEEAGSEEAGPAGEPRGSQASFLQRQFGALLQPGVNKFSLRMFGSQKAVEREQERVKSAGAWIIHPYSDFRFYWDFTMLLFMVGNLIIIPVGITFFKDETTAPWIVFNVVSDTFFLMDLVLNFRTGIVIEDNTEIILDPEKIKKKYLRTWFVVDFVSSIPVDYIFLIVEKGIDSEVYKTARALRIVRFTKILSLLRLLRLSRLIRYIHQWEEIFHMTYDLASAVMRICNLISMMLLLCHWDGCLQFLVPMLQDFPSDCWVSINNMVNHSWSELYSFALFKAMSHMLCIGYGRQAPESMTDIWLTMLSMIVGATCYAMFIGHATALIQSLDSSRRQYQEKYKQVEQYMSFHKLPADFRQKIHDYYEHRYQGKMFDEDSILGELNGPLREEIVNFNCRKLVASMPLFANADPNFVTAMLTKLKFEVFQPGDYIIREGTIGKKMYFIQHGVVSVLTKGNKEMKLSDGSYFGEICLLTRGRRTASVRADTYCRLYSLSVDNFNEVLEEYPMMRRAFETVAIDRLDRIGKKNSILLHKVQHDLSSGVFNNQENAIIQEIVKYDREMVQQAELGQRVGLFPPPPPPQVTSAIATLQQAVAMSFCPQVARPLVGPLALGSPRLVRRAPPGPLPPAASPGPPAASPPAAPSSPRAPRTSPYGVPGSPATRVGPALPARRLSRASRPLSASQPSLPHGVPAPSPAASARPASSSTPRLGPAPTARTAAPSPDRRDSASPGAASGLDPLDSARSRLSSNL
Experimental: The whole-cell voltage clamp technique was employed to record native If or expressed IHCN2 or IHCN4. Action potentials were recorded in current clamp mode, again using a whole cell patch electrode/Experiments were carried out on cells supervised at 35° C. Extracellular solution contained (mmol/L): NaCl, 140; NaOH, 2.3; MgCl2, 1; KCl, 5.4; CaCl2, 1.0; HEPES, 5; glucose, 10; pH 7.4. […] In some experiments CsCl (4 mmol/L) was used extracellularly to identify the pacemaker current as the Cs-sensitive current. […] Where indicated, 10 μmol/L cAMP was included in the pipette solution. A fast solution changing apparatus expedited the experimental protocols. The pipette resistance was typically 1–3 M. An Axopatch-200B amplifier and pClampS software (Axon Instruments) were used for acquisition and data analysis. […] For If and IHCN2 measurements, the hyperpolarizing test pulses were 3 or 6 sec long throughout the voltage range. […] In all pacemaker current protocols, each episode ended with a pulse to −5 mV for 0.5 sec to insure full deactivation.
The activation relation of the native or expressed current can be determined from the steady-state I-V relation.

native pacemaker current = conditions: sinus node; cited from earlier work

Row | Structure (SMILES) | spontaneous rate during drug exposure [1] [beats/min] | effect on heart rate of the culture (in words) [1] | positive shift of the activation curve of expressed HCN2 current (expressed HCN2 current; threshold concentration of isoproterenol, neonatal ventricular myocyte, two-step voltage protocol, one cell) | threshold concentration on native pacemaker current (native pacemaker current) | shift of the voltage dependence of HCN2 (expressed HCN2 current; adult myocytes infected with AdHCN2) [mV] | shift of the voltage dependence of HCN2 (expressed HCN2 current; neonate myocytes infected with AdHCN2) [mV]
1 | C[N+](C)(C)CCOC(N)=O [carbachol] | 45 | decrease in heart rate |  |  |  | 
2 | CCN(c1ccccc1)c1cc(=NC)n(C)c(C)n1.Cl [ZD-7288] | 78 | slows the rate |  |  |  | 
3 | CC(C)NCC(O)c1ccc(O)c(O)c1 (stereo not shown) [isoproterenol] | 63 | increase in heart rate | approximately 5 mV | approximately 1 nM |  | 
4 | Nc1ncnc2c1ncn2[C@@H]1O[C@@H]2COP(=O)(O)O[C@H]2[C@H]1O [cAMP, cyclic adenosine monophosphate] |  |  |  |  | 14 | 17

— US7122307B2, “High throughput biological heart rate monitor that is molecularly determined” (The Trustees of Columbia University in the City of New York, priority 2001, dated 2006)
